Target: T1, BhuUV-T (Burkholderia cenocepacia, UniProt B4EKB5)
T1 construct: gene hmuV; His8-BhuU full length with BhuV, plus haem-free BhuT 40-311 (GST cut off by PreScission) in ATPase assay; GFP-tagged BhuT in pull-down; heteropentamer; with Heme ABC transporter permease BhuU
Experiment: His-tag pull-down, release of GFP-BhuT from immobilized BhuUV
Assay type: binding
Details: 1 mM AMP–PNP, 1 mM MgCl2, 0.15% DM, pH 7.5, on ice; nucleotide site of BhuV

T1 sequence (B4EKB3 entry or part of it): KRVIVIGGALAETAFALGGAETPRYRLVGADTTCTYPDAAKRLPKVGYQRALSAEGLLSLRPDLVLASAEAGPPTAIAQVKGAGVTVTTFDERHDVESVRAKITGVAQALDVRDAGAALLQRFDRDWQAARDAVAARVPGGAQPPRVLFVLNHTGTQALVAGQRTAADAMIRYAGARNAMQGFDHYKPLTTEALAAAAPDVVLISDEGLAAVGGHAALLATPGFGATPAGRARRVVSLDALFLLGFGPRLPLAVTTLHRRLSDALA
T1 sequence (B4EKB4 entry or part of it, further chain): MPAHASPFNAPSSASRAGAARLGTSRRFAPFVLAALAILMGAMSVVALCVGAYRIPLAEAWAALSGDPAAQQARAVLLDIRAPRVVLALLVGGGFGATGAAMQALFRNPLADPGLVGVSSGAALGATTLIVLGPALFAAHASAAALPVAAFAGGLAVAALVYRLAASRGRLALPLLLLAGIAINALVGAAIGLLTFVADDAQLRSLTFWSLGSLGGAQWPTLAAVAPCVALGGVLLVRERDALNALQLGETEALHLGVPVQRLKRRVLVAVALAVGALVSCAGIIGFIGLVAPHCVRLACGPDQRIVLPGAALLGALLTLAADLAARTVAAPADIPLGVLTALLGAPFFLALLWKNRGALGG
T1 sequence (B4EKB5 entry or part of it): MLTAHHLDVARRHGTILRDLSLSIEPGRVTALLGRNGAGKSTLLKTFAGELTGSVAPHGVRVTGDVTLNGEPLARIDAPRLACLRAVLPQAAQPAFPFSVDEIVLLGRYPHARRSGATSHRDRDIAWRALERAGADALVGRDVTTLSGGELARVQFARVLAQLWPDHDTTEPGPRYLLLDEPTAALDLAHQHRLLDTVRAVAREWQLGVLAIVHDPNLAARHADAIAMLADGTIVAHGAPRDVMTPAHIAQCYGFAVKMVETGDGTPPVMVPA

Nc1ncnc2c1ncn2[C@@H]1O[C@H](COP(=O)(O)OP(=O)(O)NP(=O)(O)O)[C@@H](O)[C@H]1O [AMP–PNP]
His-tag pull-down, release of GFP-BhuT from immobilized BhuUV: both ATP and AMP–PNP caused the dissociation of GFP-BhuT from BhuUV

From PMC5136619, “Crystal structure of bacterial haem importer complex in the inward-facing conformation” (Nature Communications, 2016)
